Experimental data: patent US20170304002A1, “ELECTROMANIPULATION OF PROTEINS USING NANOSECOND PULSED ELECTRIC FIELDS” (Old Dominion University, priority 2014, published 2017)

System: Jurkat A3 cells
Assay: nsPEF-induced dissipation of mitochondria membrane potential (ΔΨm), TMRE flow cytometry
Format: cell-based
Method: Wildtype Jurkat T-lymphocytes (clone A3) were obtained from ATCC (Manassas, Va.) and cultured in RPMI 1640 medium (ATCC) including about 10% fetal bovine serum (FBS) (Atlanta Biologist). N1-S1 HCC cells were obtained from ATCC and cultured in Iscove's Modified Delbecco's Medium including FBS. Both cell lines were maintained in media including about 1% L-glutamine and about 1% penicillin and streptomycin. Cells were treated in cuvettes in cell culture media with nsPEFs using pulse generators, such as, for example as described in Transient features in nanosecond pulsed electric fields differentially modulate mitochondria and viability, PLoS One 7 (2012).
Loss in ΔΨm was determined by staining cells with either 2 μM JC-1 (5′,6, 6′-tetrachloro-1,1′,3,3′-tetraethylbenzimidazole-carbocyanideiodine, Molecular Probes, Eugene, Oreg., USA), where JC-1 changes from red to green when ΔΨm decreases (data not shown) or with 200 […] TMRE (tetramethylrhodamine ethyl ester, Immunochemistry Technologies LLC, Bloomington, Minn.), where TMRE red emissions decrease when ΔΨm decreases. To determine effects of Ca^2+ on ΔΨm, cells were pre-incubated with or without 20 μM BAPTA-AM and/or 5 mM EGTA for about 30 min before nsPEF treatment. The ΔΨm was determined about 10 min after treatment with nsPEFs. The TMRE red fluorescence was determined (10,000 cells) on a Becton Dickinson FacsAria flow cytometer. Although data shown are with TMRE, near identical results were obtained with JC-1. […]
Jurkat cells (A3 clone) were pre-incubated with TMRE (200 nM) for 20 min. […] Cell were then analyzed by flow cytometry 10 min after treatment for red (TMRE, ΔΨm) fluorescent and expressed as percent cells showing fluorescence (Y-axis) at each electric field strength (X-axis). In the presence of 3 mM Ca^2+ (absence of EGTA) there was an electric field-dependent decrease in cells expressing a high ΔΨm as indicated by decreases in TMRE fluorescence. […] Statistical significance was determined by the paired Student's t-test (p<0.05; n=3). […]

Row | Compound | effect on nsPEF-induced loss of ΔΨm (percent cells showing TMRE fluorescence) (30 min pre-incubation, EGTA 5 mM, BAPTA-AM 20 μM, ten 60 ns pulses, all electric fields up to 60 kV/cm, 10 min after treatment) | block of nsPEF-induced loss of ΔΨm at high electric field (electric field ≧40 kV/cm, EGTA 5 mM, BAPTA-AM 20 μM, ten 60 ns pulses) | chelation of Ca2+ influx from the extracellular environment by BAPTA-AM alone (BAPTA-AM 20 μM alone, data not shown)
1 | O=C(O)CN(CCOCCOCCN(CC(=O)O)CC(=O)O)CC(=O)O [EGTA] | prevented losses in ΔΨm | neither EGTA nor EGTA/BAPTA completely blocked loss of ΔΨm | –
2 | CC(=O)OCOC(=O)CN(CC(=O)OCOC(C)=O)c1ccccc1OCCOc1ccccc1N(CC(=O)OCOC(C)=O)CC(=O)OCOC(C)=O [BAPTA-AM] | – | – | not sufficient to chelate influxes of Ca^2+ from the extracellular environment
